Patent publication US20030143729A1 (Synaptic Pharmaceutical Corporation, priority 1992, published 2003)
Like-named read-outs stand apart in the source and are kept apart here.

Experiments:
[1] = molecular target: T1, rat GAT-3 (Rattus norvegicus, UniProt P31647)
T1 sequence (P31647 54-627 limits assumed): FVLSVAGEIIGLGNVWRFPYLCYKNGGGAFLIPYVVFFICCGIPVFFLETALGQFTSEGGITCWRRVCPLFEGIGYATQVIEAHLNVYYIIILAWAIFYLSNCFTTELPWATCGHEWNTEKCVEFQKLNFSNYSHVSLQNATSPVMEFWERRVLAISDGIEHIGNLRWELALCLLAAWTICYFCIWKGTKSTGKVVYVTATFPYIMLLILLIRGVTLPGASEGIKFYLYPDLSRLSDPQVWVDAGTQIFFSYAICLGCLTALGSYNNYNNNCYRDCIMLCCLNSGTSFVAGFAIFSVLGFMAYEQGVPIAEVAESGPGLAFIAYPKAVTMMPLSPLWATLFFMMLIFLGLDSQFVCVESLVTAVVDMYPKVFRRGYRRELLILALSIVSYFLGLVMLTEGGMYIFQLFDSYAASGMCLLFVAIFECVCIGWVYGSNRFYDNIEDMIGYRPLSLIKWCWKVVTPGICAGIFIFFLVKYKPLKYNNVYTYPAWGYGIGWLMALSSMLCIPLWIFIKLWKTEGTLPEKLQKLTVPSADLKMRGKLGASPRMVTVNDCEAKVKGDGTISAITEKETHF
Protocol: Cells grown in 24-well plates were washed 3× with HEPES-buffered saline (HBS, in mM: NaCl, 150; HEPES, 20; CaCl2, 1; glucose, 10; KCl, 5; MgCl2, 1; pH 7.4) and allowed to equilibrate on a 37° C. slide warmer. After 10 minutes the medium was removed and unlabeled drugs in HBS were added (450 μl/well). […] Plates were incubated at 37° C. for 10 minutes, then washed rapidly 3× with ice-cold HBS, using a 24-position plate washer (Brandel, Gaithersburg, Mass.; model PW-12). Cells were solubilized with 0.05% sodium deoxycholate/0.1N NaOH (0.25 ml/well), an aliquot neutralized with 1N HCl, and radioactivity was determined by scintillation counting. Protein was quantified in an aliquot of the solubilized cells using a BIO-RAD protein assay kit, according to the manufacturer's directions.
Lipophilic inhibitors were dissolved in DMSO.
Data Analysis: Competition curves were conducted in duplicate, using 10 concentrations of unlabeled drug.
COS cells grown in 75 cm^2 or 150 cm^2 flasks in DMEM with 10% bovine calf serum, 100 U/ml penicillin G, and 100 μg/ml streptomycin sulfate (37° C., 5% CO2) were transfected using DEAE-dextran. On the day following transfection the cells were split into 24-well assay plates coated with poly-D-lysine (10 μg/ml), and transport was measured 24 hours later.
After 10 minutes the medium was removed and unlabeled drugs in HBS were added (450 μl/well). […] Plates were incubated at 37° C. for 10 minutes, then washed rapidly 3× with ice-cold HBS, using a 24-position plate washer (Brandel, Gaithersburg, Mass.; model PW-12). Cells were solubilized with 0.05% sodium deoxycholate/0.1N NaOH (0.25 ml/well), an aliquot neutralized with 1N HCl, and radioactivity was determined by scintillation counting. Protein was quantified in an aliquot of the solubilized cells using a BIO-RAD protein assay kit, according to the manufacturer's directions.

[2] = system: rat brain aggregates; test: [3H]GABA uptake by brain aggregates; format: cell-based
Protocol: Briefly, adult rat brains were removed from the skull and the cerebral cortex was dissected and placed in ice-cold HBS. […] The preparation was washed once by centrifugation, then resuspended in HBS.
The filters were washed with ice-cold HBS, punched into vials, and radioactivity determined by scintillation counting. Protein was determined in an aliquot of the aggregate preparation using the BIO-RAD protein assay kit.

[3] = molecular target: T2, rGAT-2 (Rattus norvegicus, UniProt P31646); test: [3H]GABA uptake, full competition curves at cloned rGAT-2 (transient transfection, COS cells); format: cell-based
T2 construct: randomly primed GAT-2 full-length or GAT-3 truncated or full-length cDNA clones; expressed in transfected cells; host or cells: COS cells, transient, plasmid pEVJB-rB14b
T2 sequence (P31646 1-602): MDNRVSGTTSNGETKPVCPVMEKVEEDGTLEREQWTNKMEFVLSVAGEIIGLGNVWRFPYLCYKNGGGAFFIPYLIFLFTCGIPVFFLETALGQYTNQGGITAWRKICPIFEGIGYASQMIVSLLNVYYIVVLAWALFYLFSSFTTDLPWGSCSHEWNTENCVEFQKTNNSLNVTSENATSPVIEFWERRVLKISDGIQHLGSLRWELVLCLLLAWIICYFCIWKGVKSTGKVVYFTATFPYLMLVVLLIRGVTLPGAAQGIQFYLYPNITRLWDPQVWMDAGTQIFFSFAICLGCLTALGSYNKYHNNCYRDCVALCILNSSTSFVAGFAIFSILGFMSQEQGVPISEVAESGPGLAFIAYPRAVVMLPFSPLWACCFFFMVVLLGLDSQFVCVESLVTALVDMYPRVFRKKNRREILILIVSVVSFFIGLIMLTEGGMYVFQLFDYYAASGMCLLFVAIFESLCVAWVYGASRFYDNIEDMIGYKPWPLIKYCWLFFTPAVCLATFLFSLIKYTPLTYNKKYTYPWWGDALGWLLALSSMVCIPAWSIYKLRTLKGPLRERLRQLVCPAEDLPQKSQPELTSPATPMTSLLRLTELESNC

[4] = molecular target: T3, GAT-3 (Rattus norvegicus, UniProt P31647); test: [3H]GABA uptake by COS cells transfected with GAT-3 (rB8b or K438-rB8b); format: cell-based
T3 sequence (P31647 1-627): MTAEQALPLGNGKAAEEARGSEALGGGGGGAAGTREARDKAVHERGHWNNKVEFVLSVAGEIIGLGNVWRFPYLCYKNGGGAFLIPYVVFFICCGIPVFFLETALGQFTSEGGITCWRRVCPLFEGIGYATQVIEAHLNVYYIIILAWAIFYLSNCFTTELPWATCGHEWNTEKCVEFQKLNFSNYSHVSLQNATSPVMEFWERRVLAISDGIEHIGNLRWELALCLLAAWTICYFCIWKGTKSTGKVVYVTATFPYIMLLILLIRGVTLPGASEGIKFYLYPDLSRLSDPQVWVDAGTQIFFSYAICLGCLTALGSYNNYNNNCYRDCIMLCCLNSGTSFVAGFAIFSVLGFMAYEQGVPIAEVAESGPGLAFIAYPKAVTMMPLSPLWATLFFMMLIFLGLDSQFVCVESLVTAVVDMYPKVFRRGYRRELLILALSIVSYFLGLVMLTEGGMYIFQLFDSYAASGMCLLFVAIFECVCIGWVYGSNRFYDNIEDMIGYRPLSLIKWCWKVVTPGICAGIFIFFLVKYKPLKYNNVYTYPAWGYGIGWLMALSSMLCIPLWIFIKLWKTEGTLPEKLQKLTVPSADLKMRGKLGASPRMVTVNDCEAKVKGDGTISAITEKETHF

[5] = molecular target: T4, TAUT (Rattus norvegicus, UniProt P31643); test: [3H]taurine uptake, full competition curves at cloned TAUT (transient transfection, COS cells); format: cell-based
T4 sequence (P31643 1-621): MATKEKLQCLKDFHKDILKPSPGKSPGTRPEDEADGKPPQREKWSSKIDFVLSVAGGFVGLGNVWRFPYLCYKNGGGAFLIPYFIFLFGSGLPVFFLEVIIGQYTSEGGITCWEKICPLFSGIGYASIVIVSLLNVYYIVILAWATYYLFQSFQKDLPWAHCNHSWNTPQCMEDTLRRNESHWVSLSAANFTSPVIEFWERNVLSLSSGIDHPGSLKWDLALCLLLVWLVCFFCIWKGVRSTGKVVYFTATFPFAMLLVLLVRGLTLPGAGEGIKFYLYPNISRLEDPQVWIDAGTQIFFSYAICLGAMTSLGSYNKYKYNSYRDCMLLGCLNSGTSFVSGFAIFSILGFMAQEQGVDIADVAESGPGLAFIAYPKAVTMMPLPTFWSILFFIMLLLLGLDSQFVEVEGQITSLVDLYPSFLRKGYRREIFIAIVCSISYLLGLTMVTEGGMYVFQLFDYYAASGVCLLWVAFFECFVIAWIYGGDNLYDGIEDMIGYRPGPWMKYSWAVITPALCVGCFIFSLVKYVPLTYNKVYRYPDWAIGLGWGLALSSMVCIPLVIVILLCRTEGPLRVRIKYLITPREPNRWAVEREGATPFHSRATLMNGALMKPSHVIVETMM

[6] = system: endogenous taurine transporter in COS cells; test: [3H]taurine uptake by non-transfected COS-7 cells (control); format: cell-based; settings: 50 nM [3H]taurine, 10 minutes, 37° C.
[7] = Rattus norvegicus, read-out: IC50 for inhibition of [3H]GABA uptake, rat brain aggregates, control
[8] = COS, read-out: % Inhibition of [3H]GABA uptake, GAT-3
[9] = full competition curves, 50 nM [3H]taurine, read-out: IC50 for inhibition of [3H]taurine uptake, TAUT (Table 8)
[10] = read-out: IC50 for inhibition of [3H]GABA uptake, rGAT-3 (Table 8), full competition curves, 50 nM [3H]GABA
[11] = read-out: IC50 for inhibition of [3H]GABA uptake, rat brain aggregates, control, absence of NNC-711
[12] = read-out: IC50 for inhibition of [3H]GABA uptake, rat brain aggregates, with NNC-711, in the presence of 10 μM NNC-711
[13] = read-out: IC50 for inhibition of [3H]GABA uptake, rGAT-2 (Table 8), full competition curves, 50 nM [3H]GABA

| Compound | IC50 [1] | IC50 [2, 7] | IC50 [3] | inhibition at 100 µM [4, 8] | IC50 [5, 9] | IC50 [1, 10] | IC50 [2, 12] | % Inhibition of [3H]taurine uptake, control ([6]; inhibitor 10 μM) | % Inhibition of [3H]taurine uptake, control ([6]; inhibitor 100 μM) | % Inhibition of [3H]taurine uptake, control ([6]; inhibitor 1 mM) | IC50 [3, 13] | also measured |
| --- | --- | --- | --- | --- | --- | --- | --- | --- | --- | --- | --- | --- |
| N[C@@H]1CCC[C@H](C(=O)O)C1 (relative stereo) [ACHC, cis-3-aminocyclohexanecarboxylic acid] | 55100 µM | 31 µM | 25900 µM | 0% | – | – | – | – | – | – | – | IC50 [5]: 9230 µM |
| NCCCC(=O)O [GABA, gamma-aminobutyric acid] | 33 ± 10 µM | – | 17 ± 6 µM | – | 720 ± 170 µM | – | – | – | – | – | – | VMAX of GABA transport, COS/rB8b and/or COS/K438-rB8b (GAT-3) ([4]; various concentrations of [3H]GABA, 30 seconds): 3.0±0.9 nmoles/mg protein |
| N=C(N)NCCS(=O)(=O)O [GES, guanidinoethanesulfonic acid] | – | – | – | – | 129 µM | 915 ± 49 µM | 410 ± 100 µM | 6 ± 3 (4) % | 47 ± 3 (5) % | 89 ± 1 (5) % | 696 ± 110 µM | IC50 [2, 11]: 1340 µM |
| NCC[C@H](N)C(=O)O [L-DABA, L-(2,4)diaminobutyric acid] | 710 ± 237 µM | 22 ± 3 µM | 300 ± 51 µM | 4 ± 1% | – | – | – | – | – | – | – | IC50 [5]: 41800 µM |
| O=C(O)C1=CCCN(CCON=C(c2ccccc2)c2ccccc2)C1 [NNC-711] | – | – | – | – | 207 µM | 349 ± 151 µM | 323 ± 70 µM | – | – | – | 729 ± 319 µM | IC50 ([1]; read-out: IC50 for inhibition of [3H]GABA uptake, rat GAT-3, transient transfection, 50 nM [3H]GABA): 349 ± 151 µM; [3H]GABA uptake that persists, rat brain aggregates ([2]; NNC-711 at 10 μM): 15±2%; IC50 ([2]; read-out: IC50 for GABA uptake, rat brain aggregates): 0.09 µM |
| O=C(O)C1=CCCNC1 [guvacine] | 378 ± 175 µM | 10 ± 2 µM | 228 ± 38 µM | – | 1030 µM | – | – | – | – | – | – | inhibition at 10 µM [4, 8]: 8 ± 5% |
| NCCS(=O)O [hypotaurine] | 73 ± 7 µM | 692 ± 100 µM | 52 ± 6 µM | – | 47 µM | – | – | 41 ± 3 (7) % | 91 ± 1 (4) % | 99 ± 1 (4) % | – | – |
| NCCS(=O)(=O)O [taurine, 2-aminoethanesulfonic acid] | 2860 µM | 67000 µM | 1270 µM | – | 48 ± 11 µM | – | – | 38 ± 5 (7) % | 89 ± 2 (4) % | 100° % | – | – |
| NCCC(=O)O [β-alanine] | 110 ± 40 µM | – | 66 ± 9 µM | 70 ± 1% | 176 µM | – | – | 9 ± 2 (6) % | 63 ± 3 (6) % | 97 ± 1 (4) % | – | IC50 ([2]; Rattus norvegicus, read-out: IC50 for GABA transport, brain aggregates): 3000 µM; IC50 ([2]; Rattus norvegicus, read-out: IC50 for inhibition of [3H]GABA uptake, rat brain aggregates, control, absence of NNC-711): 2930 µM; IC50 ([2]; Rattus norvegicus, read-out: IC50 for inhibition of [3H]GABA uptake, rat brain aggregates, with NNC-711, in the presence of 10 μM NNC-711): 33 µM |
| hydroxynipecotic acid [OH-nipecotic] | – | – | – | – | 4810 µM | 467 ± 53 µM | 69 ± 10 µM | – | – | – | 567 ± 50 µM | IC50 [2, 11]: 10 ± 1 µM; % Inhibition of [3H]GABA uptake, GAT-3 ([4]; inhibitor 10 μM, 50 nM [3H]GABA, 10 minutes, 37° C.): 5 ± 2 (3) % |
